Data: patent US7713994B2 (Wyeth LLC, priority 2005, dated 2010)

Experiments:
HCT-116 = test: Cytotoxicity assay (SRB), HCT-116; type: cell-based; conditions: Homo sapiens, HCT-116, 72 h, HCT116 cells, SRB, three days; read-out: In Vitro Cellular Activity IC50 HCT116
How it was run: (§1)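 Cells grown in RPMI 1640 with 5% FBS were treated with compound for three days (HCT-116, LoVo, MCF-7) or six days (BT474). Viable cell mass was quantified by sulforhodamine B staining of TCA-fixed protein and read at 540 nm.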

BT474 = test: Cytotoxicity assay (SRB), BT474; type: cell-based; conditions: Homo sapiens, BT-474, 144 h, BT474 cells, SRB, 6 days; read-out: In Vitro Cellular Activity IC50 BT474
How it was run: as §1

cyclin E/CDK2 enzyme = molecular target: T1, cyclin E/CDK2 enzyme (Homo sapiens, UniProt P24941); test: CDK2 ELISA kinase assay (phospho-Rb ser 795 detection); type: biochemical; conditions: In Vitro Enzyme Assays, read-out: CDK2 IC50
T1 construct: made in house; host or cells: Sf9 insect cells, recombinant baculovirus
How it was run: (§2)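 GST-Rb C-terminal fragment coated on plates; partially purified Sf9-expressed cyclin D1/CDK4, cyclin E/CDK2 or cyclin B/CDK1 with 200 μM ATP, pH 7.5 HEPES/MgCl2 buffer, 1 h at 30 °C; screen compound final 10 μg/ml. Phospho-Rb Ser795 detected by antibody ELISA (TMB, A450); % of control, IC50 from background-subtracted inhibition curves.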

cyclin D1/cdk 4 enzyme = molecular target: T2, cyclin D1/cdk 4 enzyme (Homo sapiens, UniProt P11802); test: CDK4 ELISA kinase assay (phospho-Rb ser 795 detection); type: biochemical; conditions: In Vitro Enzyme Assays, 200 μM ATP, read-out: CDK4 IC50
T2 construct: made in house; host or cells: Sf9 insect cells, recombinant baculovirus
How it was run: as §2

MCF-7 = test: Cytotoxicity assay (SRB), MCF-7; type: cell-based; conditions: Homo sapiens, MCF7, 72 h, MCF-7 cells, SRB, three days; read-out: In Vitro Cellular Activity IC50 MCF-7
How it was run: as §1

LoVo = test: Cytotoxicity assay (SRB), LoVo; type: cell-based; conditions: Homo sapiens, LoVo, 72 h, LoVo cells, SRB, three days; read-out: In Vitro Cellular Activity IC50 LOVO
How it was run: as §1

cyclin B/CDK1 enzyme = molecular target: T3, cyclin B/CDK1 enzyme (Homo sapiens, UniProt P06493); test: CDK1 ELISA kinase assay (phospho-Rb ser 795 detection); type: biochemical; conditions: In Vitro Enzyme Assays, read-out: CDK1 IC50
T3 construct: purchased New England BioLabs; host or cells: Sf9 insect cells, recombinant baculovirus
How it was run: as §2

T3 sequence (P06493 whole entry): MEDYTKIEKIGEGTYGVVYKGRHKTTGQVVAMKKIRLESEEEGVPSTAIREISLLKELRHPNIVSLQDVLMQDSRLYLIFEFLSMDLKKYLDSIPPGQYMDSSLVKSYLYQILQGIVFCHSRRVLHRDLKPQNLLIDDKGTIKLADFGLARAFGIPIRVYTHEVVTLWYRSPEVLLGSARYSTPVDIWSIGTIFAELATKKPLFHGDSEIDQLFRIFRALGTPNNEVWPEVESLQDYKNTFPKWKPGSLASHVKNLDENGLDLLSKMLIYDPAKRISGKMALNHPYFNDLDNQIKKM
T3 sequence (P14635 whole entry partner): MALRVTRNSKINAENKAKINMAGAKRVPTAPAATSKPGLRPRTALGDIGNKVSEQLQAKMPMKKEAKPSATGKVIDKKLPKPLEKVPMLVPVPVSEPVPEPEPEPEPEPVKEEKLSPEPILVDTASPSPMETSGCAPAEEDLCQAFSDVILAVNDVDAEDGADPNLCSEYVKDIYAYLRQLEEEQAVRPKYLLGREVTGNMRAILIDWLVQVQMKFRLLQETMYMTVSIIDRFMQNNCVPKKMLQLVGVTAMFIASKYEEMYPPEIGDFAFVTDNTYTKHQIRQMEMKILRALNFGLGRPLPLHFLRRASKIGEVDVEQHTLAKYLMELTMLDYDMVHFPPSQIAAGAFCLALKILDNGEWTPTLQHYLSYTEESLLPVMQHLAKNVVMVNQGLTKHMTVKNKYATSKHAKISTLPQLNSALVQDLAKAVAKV
T2 sequence (P11802 whole entry, species assumed): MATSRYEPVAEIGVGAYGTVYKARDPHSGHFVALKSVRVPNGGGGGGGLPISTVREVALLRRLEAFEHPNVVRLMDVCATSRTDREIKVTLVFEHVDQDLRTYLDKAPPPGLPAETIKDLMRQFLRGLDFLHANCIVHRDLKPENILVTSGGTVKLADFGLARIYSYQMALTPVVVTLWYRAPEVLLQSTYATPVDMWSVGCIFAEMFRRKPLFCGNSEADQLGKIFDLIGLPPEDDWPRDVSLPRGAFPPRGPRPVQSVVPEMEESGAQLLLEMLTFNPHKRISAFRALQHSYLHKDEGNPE
T2 sequence (P24385 whole entry partner, species assumed): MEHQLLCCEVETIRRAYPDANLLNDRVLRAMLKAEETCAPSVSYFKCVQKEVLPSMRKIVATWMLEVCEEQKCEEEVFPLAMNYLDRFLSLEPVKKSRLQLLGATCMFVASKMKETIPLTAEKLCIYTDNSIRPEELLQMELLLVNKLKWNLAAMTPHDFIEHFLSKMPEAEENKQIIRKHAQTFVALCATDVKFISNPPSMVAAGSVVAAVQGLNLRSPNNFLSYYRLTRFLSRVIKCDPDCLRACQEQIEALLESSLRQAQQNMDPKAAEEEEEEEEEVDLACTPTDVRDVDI

melting point | IC50 (cyclin E/CDK2 enzyme) [nM] | IC50 (cyclin D1/cdk 4 enzyme) [nM] | IC50 (cyclin B/CDK1 enzyme) [nM] | Structure (SMILES) | IC50 (HCT-116) [nM] | IC50 (BT474) [nM] | IC50 (MCF-7) [nM] | IC50 (LoVo) [nM]
251 to 254 °C (dec.) | > 50000 | 40 | > 50000 | COc1coc(CNC=C2C(=O)NC(=O)c3ccc(-n4cccc4)cc32)cc1=O [Example 317, 4-{[(5-Methoxy-4-oxo-4H-pyran-2-ylmethyl)-amino]-methylene}-6-pyrrol-1-yl-4H-isoquinoline-1,3-dione] | 12000 | 5200 | 8400 | 4700
173 to 174 °C | > 50000 | 1400 | > 50000 | C[C@@H]1CN(c2ccc(N/C=C3\C(=O)NC(=O)c4ccc(I)cc43)cc2F)C[C@H](C)N1 [Example 319, (4Z)-4-[({4-[(3R,5S)-3,5-Dimethylpiperazin-1-yl]-3-fluorophenyl}amino)methylene]-6-iodoisoquinoline-1,3(2H,4H)-dione] | 1500 | 3100 | 2600 | 2100
222 to 223 °C | > 50000 | 170 | > 50000 | C[C@@H]1CN(c2ccc(N/C=C3\C(=O)NC(=O)c4ccc(-c5ccoc5)cc43)cc2F)C[C@H](C)N1 [Example 324, (4Z)-4-[({4-[(3R,5S)-3,5-Dimethylpiperazin-1-yl]-3-fluorophenyl}amino)methylene]-6-(3-furyl)isoquinoline-1,3(2H,4H)-dione] | 960 | 740 | 830 | 3300
217 to 218 °C | > 50000 | 60 | > 50000 | CN1CCC(c2ccc(N/C=C3\C(=O)NC(=O)c4ccc(-c5ccsc5)cc43)cc2)CC1 [Example 327, (4Z)-4-({[4-(1-Methylpiperidin-4-yl)phenyl]amino}methylene)-6-thien-3-ylisoquinoline-1,3(2H,4H)-dione] | 1500 | 2500 | 2200 | 2900
206 to 207 °C | > 50000 | 770 | > 50000 | CN1CCN(c2ccc(N/C=C3\C(=O)NC(=O)c4ccc(-n5cccc5)cc43)cc2F)CC1 [Example 328, (4Z)-4-({[3-Fluoro-4-(4-methylpiperazin-1-yl)phenyl]amino}methylene)-6-(1H-pyrrol-1-yl)isoquinoline-1,3(2H,4H)-dione] | 2400 | 1600 | 1900 | 8700
198 to 199 °C | 1500 | 5 | 6700 | CN(C)c1ccc(CN/C=C2\C(=O)NC(=O)c3ccc(I)cc32)cc1O [Example 347, (4Z)-4-({[4-(Dimethylamino)-3-hydroxybenzyl]amino}methylene)-6-iodoisoquinoline-1,3(2H,4H)-dione] | 3100 | 2400 | 2200 | 2700

The remaining lines, values behind:

Structure (SMILES) | melting point | IC50 (cyclin E/CDK2 enzyme) [nM] | IC50 (cyclin D1/cdk 4 enzyme) [nM] | IC50 (cyclin B/CDK1 enzyme) [nM] | IC50 (HCT-116) [nM] | IC50 (BT474) [nM] | IC50 (MCF-7) [nM] | IC50 (LoVo) [nM]
C[C@@H]1CN(c2ccc(N/C=C3\C(=O)NC(=O)c4ccc(-c5ccsc5)cc43)cc2F)C[C@H](C)N1 [Example 325, (4Z)-4-[({4-[(3R,5S)-3,5-Dimethylpiperazin-1-yl]-3-fluorophenyl}amino)methylene]-6-thien-3-ylisoquinoline-1,3(2H,4H)-dione] | 214 to 215 °C | > 50000 | 140 | 39700 | 720 | 1200 | 1000 | 2400
C[C@@H]1CN(c2ccc(N/C=C3\C(=O)NC(=O)c4ccc(-c5ccc(F)cc5)cc43)cc2F)C[C@H](C)N1 [Example 326, (4Z)-4-[({4-[(3R,5S)-3,5-Dimethylpiperazin-1-yl]-3-fluorophenyl}amino)methylene]-6-(4-fluorophenyl)isoquinoline-1,3(2H,4H)-dione] | 182 to 183 °C | > 50000 | 9200 | 31400 | 1000 | 980 | 1800 | 3700
COC[C@H]1CCCN1Cc1ccc(N/C=C2\C(=O)NC(=O)c3ccc(-c4ccoc4)cc32)cc1 [Example 330, (4Z)-6-(3-Furyl)-4-{[(4-{[(2R)-2-(methoxymethyl)pyrrolidin-1-yl]methyl}phenyl)amino]methylene}isoquinoline-1,3(2H,4H)-dione] | 130 to 131 °C | > 50000 | 200 | > 50000 | 2100 | 1000 | 690 | 2300
COC[C@H]1CCCN1Cc1ccc(N/C=C2\C(=O)NC(=O)c3ccc(-c4ccsc4)cc32)cc1 [Example 331, (4Z)-4-{[(4-{[(2R)-2-(Methoxymethyl)pyrrolidin-1-yl]methyl}phenyl)amino]methylene}-6-thien-3-ylisoquinoline-1,3(2H,4H)-dione] | 95 to 96 °C | > 50000 | 170 | > 50000 | 1500 | 3300 | 1700 | 3000
COc1cnc(CN/C=C2\C(=O)NC(=O)c3ccc(Br)cc32)cc1O [Example 332, 6-Bromo-4-{[(4-hydroxy-5-methoxy-pyridin-2-ylmethyl)-amino]-methylene}-4H-isoquinoline-1,3-dione] | 209 to 211 °C (dec.) | 2200 | 120 | 21300 | 3500 | 540 | 3200 | 1300
CN1CCC(c2ccc(N/C=C3\C(=O)NC(=O)c4ccc(Br)cc43)cc2)CC1 [Example 344, (4Z)-6-Bromo-4-({[4-(1-methylpiperidin-4-yl)phenyl]amino}methylene)isoquinoline-1,3(2H,4H)-dione] | 217 to 218 °C | > 50000 | 460 | > 50000 | 2600 | 4200 | 1600 | 2800
COc1ccc(-c2ccc3c(c2)/C(=C/Nc2ccc(N4C[C@@H](C)N[C@@H](C)C4)c(F)c2)C(=O)NC3=O)cc1 [Example 345, (4Z)-4-[({4-[(3R,5S)-3,5-Dimethylpiperazin-1-yl]-3-fluorophenyl}amino)methylene]-6-(4-methoxyphenyl)isoquinoline-1,3(2H,4H)-dione] | 227 to 228 °C | 43400 | 15400 | 28300 | 940 | 910 | 1400 | 1200
C[C@@H]1CN(c2cncc(N/C=C3\C(=O)NC(=O)c4ccc(-c5ccoc5)cc43)c2)C[C@H](C)N1 [Example 346, (4Z)-4-[({5-[(3R,5S)-3,5-Dimethylpiperazin-1-yl]pyridin-3-yl}amino)methylene]-6-(3-furyl)isoquinoline-1,3(2H,4H)-dione] | 175 to 176 °C | > 50000 | 180 | > 50000 | 1900 | 960 | 1400 | 2100
CC(=O)N1CCC(c2ccc(N/C=C3\C(=O)NC(=O)c4ccc(-c5ccoc5)cc43)cc2)CC1 [Example 351, (4Z)-4-({[4-(1-Acetylpiperidin-4-yl)phenyl]amino}methylene)-6-(3-furyl)isoquinoline-1,3(2H,4H)-dione] | 178 to 179 °C | > 50000 | 130 | > 50000 | 3000 | 1100 | 2100 | 2700
Cc1cc(N/C=C2\C(=O)NC(=O)c3ccc(-c4ccoc4)cc32)cnc1N1C[C@@H](C)N[C@@H](C)C1 [Example 355, (4Z)-4-[({6-[(3R,5S)-3,5-Dimethylpiperazin-1-yl]-5-methylpyridin-3-yl}amino)methylene]-6-(3-furyl)isoquinoline-1,3(2H,4H)-dione] | 195 to 196 °C | > 50000 | 360 | > 50000 | 1200 | 1700 | 1400 | 2000
Cc1cc(N/C=C2\C(=O)NC(=O)c3ccc(-c4ccsc4)cc32)cnc1N1C[C@@H](C)N[C@@H](C)C1 [Example 356, (4Z)-4-[({6-[(3R,5S)-3,5-Dimethylpiperazin-1-yl]-5-methylpyridin-3-yl}amino)methylene]-6-thien-3-ylisoquinoline-1,3(2H,4H)-dione] | 219 to 220 °C | > 50000 | 390 | > 50000 | 1600 | 3000 | 2700 | 2800
